According to patent publication US9365541B2, “Compounds for use in the treatment of parasitic diseases” (IRBM—SCIENCE PARK S.P.A., priority 2012, dated 2016):

Key:
human HDAC1 = biological target: T1, human HDAC1 (Homo sapiens, UniProt Q13547); experiment: Homo sapiens HDAC1 inhibition assay (Fluor-de-Lys, enzymatic); assay type: biochemical; details: human HDAC enzymatic assay; read-out: hHDAC IC50
T1 construct: made in house; host or cells: HeLa (ATCC CCL-2), mammalian cells
Method: Biology Homo sapiens HDAC1 Inhibition Assay Overview:
The aim of the assay is to evaluate the inhibition of the deacetylase activity of human HDAC1. To such goal an acetylated substrate is added to the enzyme mix; the resulting enzymatic product is converted to a fluorescent molecule by the addition the enzyme trypsine (developer solution). Fluorescence intensity is inversely proportional to the rate of inhibition of the enzyme (as indicated in the material section below).
Reagents of the HDAC Fluorescent Activity Assay are purchased from Enzo Life Sciences (http://www.enzolifesciences.com/BML-AK500/fluor-de-lys-hdac-fluorometric-activity-assay-kit/) and feature the Fluor-de-Lys™ Substrate/Developer System.
c) Trichostatin A (TSA) Stock
TSA (Sigma-Aldrich, T8552) is provided as a 10 mM stock solution in 100% dimethylsulfoxide (DMSO).
Diluted Substrate Solution
The final concentration in the assay is 20 μM.
Diluted Developer Solution
2 μM [final] TSA to this solution increases its ability to stop the reaction.
The HDAC1 enzyme is diluted in assay buffer prior to each use from a fresh aliquot of enzyme.
The final concentration in the assay is 1-2 nM.
Test compounds should be prepared in 100% DMSO and transferred to the assay by a nano volume dispenser to reach the appropriate concentration and the appropriate DMSO concentration (0.25%) in the reaction.

[1] = test system: Plasmodium falciparum 3D7; experiment: P. falciparum growth inhibition assay (Pf-LDH); assay type: cell-based; details: Plasmodium falciparum
Method: Basic culture of Plasmodium falciparum 3D7 parasites (Malaria Research and Reference Reagent Resource Center (MR4), MR4 Number: MRA-102).
Starting with a culture with a parasitemia of about 10% (and 5% hematocrit), 0.5 ml of the culture is placed in a fresh 100 mm petri dish with 0.95 ml of fresh erythrocytes (50% hematocrit) and 8.55 ml of culture medium, giving a new starting parasitemia of 0.5%. The petri dish is then incubated at 37° C. in a humidified gas-tight plastic box flushed with a gas mixture consisting of 93% N2, 4% CO2, and 3% O2. The culture medium is changed daily. The supernatant is removed by gently tipping the dish without disturbing the settled cells and aspirating the medium with a Pasteur pipette connected to a vacuum pump. A small amount of the concentrated cells is taken to prepare a blood smear for determination of the parasitemia. Normally, the cultures are split twice a week. If the parasites are growing very slowly then fresh erythrocytes are added to the culture no later than after 7 days. The cultures are then split 1:2 if the parasitemia is lower than 0.5%. To avoid the necessity of daily medium change on weekends, a culture with a 2.5% hematocrit and 0.1-0.2% parasitemia is set up and can be left for 3 days without medium change.
Standard medium consists of RPMI 1640, supplemented with 25 mM HEPES, 24 mM NaHCO3, 0.36 mM hypoxanthine, 100 μg/ml Neomycin, 5 g/1 Albumax® II, and washed human red blood cells (rbcs) A+.
P. falciparum Growth Inhibition Assay (Pf-LDH)
Compounds of the invention were assessed for in vitro antimalarial activity against a cloroquine sensitive (3D7) strain of the malaria parasite Plasmodium falciparum, using a lactate dehydrogenase (PfLDH) assay.
EC50 Determination by Pf-LDH Assay
384 plates (where compounds to be tested are dispensed) with 25 μl of parasite inoculum (parasitemia: 0.25%, hematocrit: 2%) are incubated at 37° C. in an atmosphere of 4% CO2, 3% O2, 93% N2. After 72 h of incubation, plates are frozen at −70° C. overnight and thawed at room temperature for at least 4 h. To evaluate PfLDH activity, 70 μl of freshly made reaction mix (143 mM sodium L-lactate, 143 μM 3-acetyl pyridine adenine dinucleotide (APAD), 178.75 μM Nitro Blue tetrazolium chloride (NBT), 286 μg/ml diaphorase (2.83 U/ml), 0.7% Tween 20, 100 mM Tris-HCl pH 8.0) is dispensed using a Multidrop Combi dispenser. Plates are shaken to ensure mixing and absorbance at 650 nm is monitored in a plate reader after 10 min of incubation at room temperature.
Negative controls (0% Effect) are produced by addition of DMSO to the proper wells.
Positive controls (100% Effect) are produced by addition of 150 nM Artemisinin (Sigma-Aldrich, 361593)
After result normalization using positive and negative controls, compound potency is determined by fitting the following equation: % inh=Ymin+(Ymax−Ymin)/(1+(X/EC50)^slope)) Where: • Ymin=minimum percentage effect • Ymax=maximum percentage effect • EC50=the concentration of the compound at which 50% effect is reached • Slope=the slope of the curve calculated at the EC50 Histone Hyperacetylation and Immunodetection of Altered Histone Modifications Assay

[2] = Erythrocyte, P. falciparum 3D7 infected erythrocytes, 72 h incubation, PfLDH readout

T1 sequence (Q13547 whole entry): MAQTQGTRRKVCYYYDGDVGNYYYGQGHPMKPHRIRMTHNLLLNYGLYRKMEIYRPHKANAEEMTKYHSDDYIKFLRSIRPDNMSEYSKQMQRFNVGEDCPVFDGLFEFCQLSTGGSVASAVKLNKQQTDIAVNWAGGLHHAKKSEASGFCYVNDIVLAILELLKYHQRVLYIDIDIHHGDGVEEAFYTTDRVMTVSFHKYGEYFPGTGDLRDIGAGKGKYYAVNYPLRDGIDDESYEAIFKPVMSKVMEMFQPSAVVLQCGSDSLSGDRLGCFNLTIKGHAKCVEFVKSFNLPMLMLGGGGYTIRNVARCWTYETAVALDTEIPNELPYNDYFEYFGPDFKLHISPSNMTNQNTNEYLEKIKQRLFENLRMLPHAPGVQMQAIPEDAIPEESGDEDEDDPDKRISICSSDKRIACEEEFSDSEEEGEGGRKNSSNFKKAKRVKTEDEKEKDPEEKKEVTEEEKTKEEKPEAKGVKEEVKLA

| Compound | IC50 (human HDAC1) | EC50 [1, 2] | EC50 ([1]; P. falciparum 3D7, n=11) |
| --- | --- | --- | --- |
| CNC(=O)CCCCC[C@H](NC(=O)CC1=CSC2=NCCCN12)c1ncc(-c2ccc(-c3ccn(C)n3)cc2)[nH]1 [Entry 92, (S)-7-(2-(6,7-dihydro-5H-thiazolo[3,2-a]pyrimidin-3-yl)acetamido)-N-methyl-7-(5-(4-(1-methyl-1H-pyrazol-3-yl)phenyl)-1H-imidazol-2-yl)heptanamide] | 1 to 5 µM | > 5 µM |  |
| CNC(=O)CCCCC[C@H](NC(=O)C12CCN(CC1)CC2)c1ncc(-c2ccc3ccccc3c2)[nH]1 [compound 126, (S)-N-(7-(methylamino)-1-(5-(naphthalen-2-yl)-1H-imidazol-2-yl)-7-oxo-heptyl)quinuclidine-4-carboxamide] | < 1 µM | < 1 µM | 0.293 µM |
| COc1nc2ccccc2cc1-c1cnc([C@H](CCCCCC(N)=O)OC(=O)C23CCN(CC2)CC3)o1 [Entry 55] | < 1 µM | 1 to 5 µM |  |
| CNC(=O)CCCCC[C@H](NC(=O)C1(C)CCOCC1)c1ncc(-c2cc3ccccc3nc2OC)[nH]1 [Entry 133, (S)-N-(1-(5-(2-methoxyquinolin-3-yl)-1H-imidazol-2-yl)-7-(methylamino)-7-oxoheptyl)-4-methyltetrahydro-2H-pyran-4-carboxamide] | 1 to 5 µM | 1 to 5 µM |  |
| CNC(=O)CCCCC[C@H](NC(=O)c1cnn(C)c1)c1ncc(-c2ccc(-c3ccn(C)n3)cc2)o1 [Entry 224, (S)-1-methyl-N-(1-(5-(4-(1-methyl-1H-pyrazol-3-yl)phenyl)oxazol-2-yl)-7-(methylamino)-7-oxoheptyl)-1H-pyrazole-4-carboxamide] | > 5 µM | 1 to 5 µM |  |
| CNC(=O)CCCCC[C@H](NC(=O)c1cncs1)c1ncc(-c2ccc(-c3ccccc3)cc2)[nH]1 [Entry 108, (S)-N-(1-(5-([1,1′-biphenyl]-4-yl)-1H-imidazol-2-yl)-7-(methylamino)-7-oxoheptyl)thiazole-5-carboxamide] | > 5 µM | > 5 µM |  |
| CNC(=O)CCCCC[C@H](NC(=O)c1cncs1)c1ncc(-c2ccc(-c3ccncc3)cc2)[nH]1 [Entry 29, (S)-N-(7-(methylamino)-7-oxo-1-(5-(4-(pyridin-4-yl)phenyl)-1H-imidazol-2-yl)heptyl)thiazole-5-carboxamide] | 1 to 5 µM | 1 to 5 µM |  |
| CNC(=O)CCCCC[C@H](NC(=O)c1nnc(C)s1)c1ncc(-c2ccc3ccccc3c2)[nH]1 [Entry 84, (S)-5-methyl-N-(7-(methylamino)-1-(5-(naphthalen-2-yl)-1H-imidazol-2-yl)-7-oxoheptyl)-1,3,4-thiadiazole-2-carboxamide] | 1 to 5 µM | > 5 µM |  |
| CNC(=O)CCCCC[C@H](NC(=O)Cn1cnnc1)c1ncc(-c2cc3ccccc3nc2OC)[nH]1 [Entry 184, (S)-7-(2-(4H-1,2,4-triazol-4-yl)acetamido)-7-(5-(2-methoxyquinolin-3-yl)-1H-imidazol-2-yl)-N-methylheptanamide] | 1 to 5 µM | 1 to 5 µM |  |
| CNC(=O)CCCCC[C@H](NC(=O)Cc1ccccn1)c1ncc(-c2cc3ccccc3nc2OC)[nH]1 [Entry 106] | 1 to 5 µM | > 5 µM |  |
| CNC(=O)CCCCC[C@H](NC(=O)[C@H]1CCN(C)C1)c1ncc(-c2ccc3ccccc3c2)[nH]1 [Entry 149, (S)-1-methyl-N-((S)-7-(methylamino)-1-(5-(naphthalen-2-yl)-1H-imidazol-2-yl)-7-oxo-heptyl)pyrrolidine-3-carboxamide] | 1 to 5 µM |  |  |

The next lines start with results.

| IC50 (human HDAC1) | EC50 [1, 2] | Compound | EC50 ([1]; P. falciparum 3D7, n=11) |
| --- | --- | --- | --- |
| 1 to 5 µM | 1 to 5 µM | CCc1nc2ccccc2n1CCC(=O)N[C@@H](CCCCCC(=O)NC)c1nnc(-c2ccc3ccccc3c2)o1 [Entry 94, (S)-7-(3-(2-ethyl-1H-benzo[d]imidazol-1-yl)propanamido)-N-methyl-7-(5-(naphthalen-2-yl)-1,3,4-oxadiazol-2-yl)heptanamide] |  |
| 1 to 5 µM | 1 to 5 µM | CNC(=O)CCCCC[C@H](NC(=O)CCc1c(C)nc2ncnn2c1C)c1ncc(-c2ccc(-n3cccn3)cc2)[nH]1 [Entry 38, (S)-7-(5-(4-(1H-pyrazol-1-yl)phenyl)-1H-imidazol-2-yl)-7-(3-(5,7-dimethyl-[1,2,4]triazolo[1,5-a]pyrimidin-6-yl)propanamido)-N-methylheptanamide] |  |
| < 1 µM | < 1 µM | CNC(=O)CCCCC[C@H](NC(=O)c1cncs1)c1ncc(-c2ccc3cc(OC)ncc3c2)[nH]1 [Entry 105, (S)-N-(1-(5-(3-methoxyisoquinolin-7-yl)-1H-imidazol-2-yl)-7-(methylamino)-7-oxoheptyl)thiazole-5-carboxamide] |  |
| > 5 µM | 1 to 5 µM | CNC(=O)CCCCC[C@H](NC(=O)c1cccc(-n2cccn2)c1)c1ncc(-c2cc3ccccc3nc2OC)[nH]1 [Entry 156, (S)-N-(1-(5-(2-methoxyquinolin-3-yl)-1H-imidazol-2-yl)-7-(methylamino)-7-oxoheptyl)-3-(1H-pyrazol-1-yl)benzamide] |  |
| < 1 µM | 1 to 5 µM | CNC(=O)CCCCC[C@H](NC(=O)OCc1ccccc1)c1ncc(-c2ccc(-c3cc[nH]n3)cc2)[nH]1 [Entry 37, (S)-benzyl(1-(5-(4-(1H-pyrazol-3-yl)phenyl)-1H-imidazol-2-yl)-7-(methylamino)-7-oxoheptyl)carbamate] |  |
| 1 to 5 µM | < 1 µM | CNC(=O)CCCCC[C@H](NC(=O)CC1=CSC2=NCCCN12)c1ncc(-c2ccc3ccccc3c2)[nH]1 [Entry 202, (S)-7-(2-(6,7-dihydro-5H-thiazolo[3,2-a]pyrimidin-3-yl)acetamido)-N-methyl-7-(5-(naphthalen-2-yl)-1H-imidazol-2-yl)heptanamide] |  |
| 1 to 5 µM | 1 to 5 µM | CNC(=O)CCCCC[C@H](NC(=O)C(C)n1cccn1)c1ncc(-c2ccc3ccccc3c2)[nH]1 (stereo partly drawn) [Entry 85, (7S)-7-(2-(1H-pyrazol-1-yl)propanamido)-N-methyl-7-(5-(naphthalen-2-yl)-1H-imidazol-2-yl)heptanamide] |  |
| 1 to 5 µM | < 1 µM | CNC(=O)CCCCC[C@H](NC(=O)c1cncs1)c1ncc(-c2ccc(-c3ccn(C)n3)cc2)[nH]1 [Entry 158] |  |
| 1 to 5 µM | < 1 µM | CNC(=O)CCCCC[C@H](NC(=O)c1cncs1)c1ncc(-c2ccc(-n3cccn3)cc2)[nH]1 [Entry 172, (S)-N-(1-(5-(4-(1H-pyrazol-1-yl)phenyl)-1H-imidazol-2-yl)-7-(methylamino)-7-oxoheptyl)thiazole-5-carboxamide] |  |
|  | < 1 µM | CNC(=O)CCCCC[C@H](NC(=O)c1cncs1)c1ncc(-c2cc3ccccc3nc2OC)[nH]1 [Entry 178, (S)-N-(1-(5-(2-methoxyquinolin-3-yl)-1H-imidazol-2-yl)-7-(methylamino)-7-oxoheptyl)thiazole-5-carboxamide] |  |
|  | < 1 µM | COc1ccc2[nH]c(C)c(CC(=O)N[C@@H](CCCCCC(N)=O)c3ncc(-c4ccc5ccccc5c4)[nH]3)c2c1 [Entry 96, (S)-7-(2-(5-methoxy-2-methyl-1H-indol-3-yl)acetamido)-7-(5-(naphthalen-2-yl)-1H-imidazol-2-yl)heptanamide] |  |
